Experimental data reported in patent US20110105500A1, “PYRAZINE SUBSTITUTED PURINES” (S*BIO Pte Ltd., priority 2008, published 2011).

Experiments:
[1] = molecular target: T1, Full-length mTOR kinase (Homo sapiens, UniProt P42345); assay: mTOR Assay (phosphorylation of 4eBP1, [γ33P]-ATP filter plate); type: biochemical; details: 10 μM ATP, 1 hour at room temperature
T1 construct: Full-length mTOR kinase and His-tagged 4eBP1 were produced in-house; made in house
Procedure: Full-length mTOR kinase and His-tagged 4eBP1 were produced in-house. [γ^33P]-ATP was purchased from Amersham (GE Healthcare). All chemicals, unless otherwise stated, were from Sigma-Aldrich.
Phosphorylation assays were initially performed in a final volume of 20 μL in 384-well polypropylene plate (Greiner). Compounds were typically tested over the range from 100 μM to 0.006 μM, in 8 step dilutions, in duplicate. 10 μL/well of 2× Enzyme-Substrate solution (1.5 μg/mL mTOR, 40 μg/mL 4eBP1 in 1× assay buffer: 10 mM Hepes pH 7.5, 50 mM NaCl and 10 mM MnCl2) were first added to the sample plate containing 1 μL/well of test compound in neat DMSO. The reaction was initiated by adding 10 μL/well of 20 μM ATP solution (final assay concentration 10 μM ATP and 0.4 μCi/well of [γ^33P]-ATP). After 1 hour incubation at room temperature, the reaction was terminated with 40 μL/well of 20 mM EDTA/1 mM ATP solution.
50 μL/well of the stopped reaction mix was then transferred to 384-well MultiScreenHTS-PH filter plate (Millipore) pre-added with 50 μL/well of 1% phosphoric acid. The plate was washed 4 times with 120 μL/well of 0.5% phosphoric acid via vacuum filtration. Finally, 10 μL/well of Optiphase™ SuperMix liquid scintillation cocktail (Perkin Elmer) was added. After minimum 1 hour of incubation, counting was performed in a Wallac MicroBeta TriLux scintillation counter using coincidence counting mode with crosstalk correction. IC50 is defined as the concentration of compound required for 50% inhibition of kinase enzyme activity.

[2] = molecular target: T2, Recombinant PI3K p110α/p85 (Homo sapiens, UniProt P42336); assay: PI3K Assay ([γ33P]ATP, PtdIns/PtdSer coated plates); type: biochemical; details: p110α/p85, 2 μM ATP, 1 hour at RT; read-out: IC50 (PI3Kα)
T2 construct: made in house
T2 sequence (P42336 whole entry): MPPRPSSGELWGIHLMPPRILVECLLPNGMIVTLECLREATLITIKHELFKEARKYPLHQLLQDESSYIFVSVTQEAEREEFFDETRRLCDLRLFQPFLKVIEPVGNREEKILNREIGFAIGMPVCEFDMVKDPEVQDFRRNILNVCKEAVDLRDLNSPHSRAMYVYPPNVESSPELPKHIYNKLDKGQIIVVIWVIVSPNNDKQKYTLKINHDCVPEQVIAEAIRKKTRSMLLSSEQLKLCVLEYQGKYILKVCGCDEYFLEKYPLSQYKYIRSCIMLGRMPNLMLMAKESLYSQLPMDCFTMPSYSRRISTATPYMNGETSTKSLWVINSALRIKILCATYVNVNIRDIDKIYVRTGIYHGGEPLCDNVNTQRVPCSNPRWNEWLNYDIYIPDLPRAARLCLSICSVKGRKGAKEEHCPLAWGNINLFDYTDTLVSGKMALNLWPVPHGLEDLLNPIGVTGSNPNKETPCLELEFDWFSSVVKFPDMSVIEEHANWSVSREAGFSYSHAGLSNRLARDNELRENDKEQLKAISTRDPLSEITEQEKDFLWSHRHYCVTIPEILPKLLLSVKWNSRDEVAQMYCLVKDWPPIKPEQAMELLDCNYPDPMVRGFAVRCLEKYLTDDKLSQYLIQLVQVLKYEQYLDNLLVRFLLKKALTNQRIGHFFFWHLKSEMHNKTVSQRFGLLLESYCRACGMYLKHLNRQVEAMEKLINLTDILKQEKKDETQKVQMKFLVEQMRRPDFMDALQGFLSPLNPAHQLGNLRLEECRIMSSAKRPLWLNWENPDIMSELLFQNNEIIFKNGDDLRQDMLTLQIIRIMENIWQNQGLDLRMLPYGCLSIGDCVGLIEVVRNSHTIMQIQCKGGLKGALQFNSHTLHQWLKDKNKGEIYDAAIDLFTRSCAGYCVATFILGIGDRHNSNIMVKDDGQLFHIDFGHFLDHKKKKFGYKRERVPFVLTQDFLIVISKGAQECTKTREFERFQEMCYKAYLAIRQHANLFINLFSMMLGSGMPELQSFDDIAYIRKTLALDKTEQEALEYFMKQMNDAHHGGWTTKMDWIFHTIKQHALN
T2 sequence (P27986 whole entry partner): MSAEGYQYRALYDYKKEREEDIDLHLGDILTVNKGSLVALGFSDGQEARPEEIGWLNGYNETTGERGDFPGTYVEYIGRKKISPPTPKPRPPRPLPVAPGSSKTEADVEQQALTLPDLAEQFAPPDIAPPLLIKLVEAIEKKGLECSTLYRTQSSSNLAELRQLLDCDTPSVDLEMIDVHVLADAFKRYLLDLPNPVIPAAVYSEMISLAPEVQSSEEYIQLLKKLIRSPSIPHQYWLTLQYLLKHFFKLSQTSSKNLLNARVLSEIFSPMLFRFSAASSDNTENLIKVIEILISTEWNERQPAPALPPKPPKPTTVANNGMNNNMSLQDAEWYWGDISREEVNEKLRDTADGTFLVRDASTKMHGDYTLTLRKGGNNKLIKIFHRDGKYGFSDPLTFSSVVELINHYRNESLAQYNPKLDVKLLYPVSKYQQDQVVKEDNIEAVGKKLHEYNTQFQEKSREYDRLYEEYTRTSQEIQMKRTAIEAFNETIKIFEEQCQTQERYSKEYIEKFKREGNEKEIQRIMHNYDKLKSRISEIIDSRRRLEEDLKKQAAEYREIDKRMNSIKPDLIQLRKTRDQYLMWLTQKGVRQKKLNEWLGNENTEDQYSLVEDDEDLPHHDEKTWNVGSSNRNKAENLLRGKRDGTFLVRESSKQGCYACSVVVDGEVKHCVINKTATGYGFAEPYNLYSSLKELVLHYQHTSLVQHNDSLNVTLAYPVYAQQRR
Procedure: Recombinant PI3K p110α/p85 was prepared in-house. Phosphatidylinositol (PtdIns), phosphotidylserine (PtdSer) and all other unspecified chemicals were purchased from Sigma-Aldrich. [γ33P]ATP and Optiphase scintillant were obtained from Perkin Elmer.
Assays were performed in a final assay volume of 25 μL in 384-well Maxisorp plates (Nunc). […] Maxisorp plates were coated with 20 μL/well of a 1:1 mixture of PtdIns and PtdSer [0.1 mg/mL each dissolved in chloroform:ethanol (3:7)] and left overnight in a fume hood at room temperature to dry.
The enzyme reaction was created by pipetting 5 μL/well of compound (in 2.5% DMSO), 10 μL/well of enzyme (0.5 μg/mL p110α+1 μg/mL p85), and 10 μL/well of 5 μM ATP with 5 μCi/mL [γ^33P]ATP in assay buffer (final concentrations: 0.2 μg/mL p110α, 2 μM ATP, 0.05 μCi/well [γ^33P]ATP in 1× assay buffer: 100 mM Tris-HCl pH 7.0, 200 mM NaCl, 8 mM MgCl2). The reaction was incubated for 1 hour at RT and terminated with 30 μL/well of 50 mM EDTA solution. The plate was then washed twice with TBS, dried, and added with 30 μL/well of scintillant before it was counted in a MicroBeta Trilux.

[3] = tested on: human breast cancer cell lines; details: cited from earlier work

Row | IC50 [1] [nM] | IC50 [2] [nM] | SMILES | IC50 (sensitive lines) ([3]; six of eight human breast cancer cell lines) | IC50 ([3]; two resistant lines of eight human breast cancer cell lines) [nM]
1 | < 1000 | < 1000 | Nc1cnc(-c2nc(N3CCOCC3)nc3c2ncn3C2CCCC2)cn1 [Compound 5] | – | –
2 | < 1000 | < 1000 | CC(C1CC1)n1cnc2c(-c3cnc(N)cn3)nc(N3CCOCC3)nc21 (stereo not shown) [Compound 9] | – | –
3 | < 1000 | < 1000 | CC(C)(C)Cn1cnc2c(-c3cnc(N)cn3)nc(N3CCOCC3)nc21 [Compound 22] | – | –
4 | < 1000 | < 1000 | Nc1cnc(-c2nc(N3CCOCC3)nc3c2nc(Br)n3C2CCOC2)cn1 (stereo not shown) [Compound 20] | – | –
5 | < 1000 | < 1000 | Nc1cnc(-c2nc(N3CCOCC3)nc3c2ncn3-c2ccccc2)cn1 [Compound 19] | – | –
6 | < 1000 | < 1000 | Nc1cnc(-c2nc(N3CCOCC3)nc3c2ncn3C2CCc3ccccc32)cn1 (stereo not shown) [Compound 23] | – | –
7 | < 1000 | < 1000 | Nc1cnc(-c2nc(N3CCOCC3)nc3c2ncn3C2CCN(c3ccccc3)CC2)cn1 [Compound 16] | – | –
8 | < 1000 | < 1000 | Nc1cnc(-c2nc(N3CCOCC3)nc3c2ncn3C2Cc3ccccc3C2)cn1 [Compound 21] | – | –
9 | < 1000 | < 1000 | CCC(C)n1c(Br)nc2c(-c3cnc(N)cn3)nc(N3CCOCC3)nc21 (stereo not shown) [Compound 15, 5-(8-Bromo-9-sec-butyl-2-morpholin-4-yl-9H-purin-6-yl)-pyrazin-2-ylamine] | – | –
10 | 1000 to 5000 | < 1000 | Nc1cnc(-c2nc(N3CCOCC3)nc3c2ncn3Cc2ccccc2)cn1 [Compound 6] | – | –
11 | – | – | CO[C@H]1C[C@@H]2CC[C@@H](C)[C@@](O)(O2)C(=O)C(=O)N2CCCC[C@H]2C(=O)O[C@H]([C@H](C)C[C@@H]2CC[C@@H](OC(=O)C(C)(CO)CO)[C@H](OC)C2)CC(=O)[C@H](C)/C=C(\C)[C@@H](O)[C@@H](OC)C(=O)[C@H](C)C[C@H](C)/C=C/C=C/C=C/1C [CCI-779] | low nanomolar range | > 1000
12 | < 1000 | < 1000 | Nc1cnc(-c2nc(N3CCOCC3)nc3c2ncn3CC2CC2)cn1 [Compound 8] | – | –
13 | < 1000 | < 1000 | Cc1cccc(-n2cnc3c(-c4cnc(N)cn4)nc(N4CCOCC4)nc32)c1 [Compound 11, 5-(2-Morpholin-4-yl-9-m-tolyl-9H-purin-6-yl)-pyrazin-2-ylamine] | – | –
14 | < 1000 | < 1000 | COCC(C)n1cnc2c(-c3cnc(N)cn3)nc(N3CCOCC3)nc21 (stereo not shown) [Compound 10] | – | –
15 | < 1000 | < 1000 | Nc1cnc(-c2nc(N3CCOCC3)nc3c2ncn3C2CCC2)cn1 [Compound 24] | – | –
16 | < 1000 | < 1000 | Nc1cnc(-c2nc(N3CCOCC3)nc3c2ncn3C2CCOC2)cn1 (stereo not shown) [Compound 12] | – | –
17 | < 1000 | < 1000 | Nc1cnc(-c2nc(N3CCOCC3)nc3c2ncn3C2CCc3ccccc3C2)cn1 (stereo not shown) [Compound 13] | – | –
18 | < 1000 | < 1000 | CCC(C#N)n1cnc2c(-c3cnc(N)cn3)nc(N3CCOCC3)nc21 (stereo not shown) [Compound 3] | – | –
19 | < 1000 | < 1000 | CC1CCCCC1n1cnc2c(-c3cnc(N)cn3)nc(N3CCOCC3)nc21 (stereo not shown) [Compound 25] | – | –
20 | < 1000 | < 1000 | CCC(C)n1cnc2c(-c3cnc(N)cn3)nc(N3CCOCC3)nc21 (stereo not shown) [Compound 1, 5-(9-sec-Butyl-2-morpholin-4-yl-9H-purin-6-yl)-pyrazin-2-ylamine] | – | –
21 | < 1000 | < 1000 | Nc1cnc(-c2nc(N3CCOCC3)nc3[nH]cnc23)cn1 [Compound 17] | – | –
22 | < 1000 | < 1000 | Nc1cnc(-c2nc(N3CCOCC3)nc3c2ncn3C2CCN(c3ccccc3)C2)cn1 (stereo not shown) [Compound 18] | – | –
23 | < 1000 | < 1000 | CCC(CC)n1cnc2c(-c3cnc(N)cn3)nc(N3CCOCC3)nc21 [Compound 4] | – | –
24 | < 1000 | < 1000 | CC(C)C(C)n1cnc2c(-c3cnc(N)cn3)nc(N3CCOCC3)nc21 (stereo not shown) [Compound 2] | – | –
25 | < 1000 | < 1000 | Nc1cnc(-c2nc(N3CCOCC3)nc3c2ncn3Cc2c(F)cccc2F)cn1 [Compound 7, 5-[9-(2,6-Difluoro-benzyl)-2-morpholin-4-yl-9H-purin-6-yl]-pyrazin-2-ylamine] | – | –

Row | SMILES | IC50 [1] [nM] | IC50 [2] [nM] | IC50 (sensitive lines) ([3]; six of eight human breast cancer cell lines) | IC50 ([3]; two resistant lines of eight human breast cancer cell lines) [nM]
26 | Nc1cnc(-c2nc(N3CCOCC3)nc3c2ncn3-c2ccc3c(c2)OCO3)cn1 [Compound 14] | < 1000 | < 1000 | – | –
